Values after ≈ are worked out from the molar mass of the structure shown. Read-outs that look alike come from different tables or passages of the source.
Experiments:
[1] = system: Bacillus cereus var. mycoides; assay type: cell-based, Bacillus cereus var. mycoides: ATCC 11778; details: Table 6; for Effective Combination Concentrations: Units/mL Benzyl Penicillin: concentration of benzyl penicillin combined with the compound; for Effective Combination Concentrations: μg/mL Compound: concentration of compound in combination with benzyl penicillin
[2] = system: penicillin-resistant Staphylococcus aureus strain; assay: Intrinsic antibacterial activity, microdilution method (MIC, compound alone); details: for MIC: Staphylococcus aureus
[3] = system: Bacillus cereus var. mycoides; assay: microbe, parasite or virus in culture; assay type: cell-based, Bacillus cereus var. mycoides: ATCC 11778; details: for MIC: Bacillus cereus, read-out: MIC: μg/mL Compound Alone; for active against B. cereus var. mycoides: Table 6
[4] = system: penicillin-resistant Staphylococcus aureus strain; assay: Antibacterial activity in combination with benzyl penicillin, modified microdilution technique; details: Table 4; for Effective Combination Concentrations: Units/mL Benzyl Penicillin: concentration of benzyl penicillin combined with the compound; for Effective Combination Concentrations: μg/mL Compound: concentration of compound in combination with benzyl penicillin
[5] = molecular target: Pencillinase Type I (a β-lactamase from Bacillus cereus) (Bacillus cereus, UniProt P00809); assay: Inhibition of the hydrolysis of penicillin G by Pencillinase Type I; assay type: biochemical; details: penicillin G 0.6 mg/mL; enzyme 2.8 μg/mL; inhibitor 75 μg/mL; read-out: percent inhibition of hydrolysis of penicillin G
Chain of Pencillinase Type I (a β-lactamase from Bacillus cereus) (P00809 28-306): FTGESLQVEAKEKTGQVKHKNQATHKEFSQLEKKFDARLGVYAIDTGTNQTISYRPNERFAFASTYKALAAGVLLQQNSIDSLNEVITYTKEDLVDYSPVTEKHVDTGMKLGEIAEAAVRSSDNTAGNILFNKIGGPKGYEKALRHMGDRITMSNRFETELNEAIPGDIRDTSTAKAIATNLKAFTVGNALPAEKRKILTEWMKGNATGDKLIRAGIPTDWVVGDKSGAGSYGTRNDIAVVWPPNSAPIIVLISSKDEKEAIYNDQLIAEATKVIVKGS

[6] = system: Penicillin Gresistant strain of Staphylococcus Aureus; assay: Survival of mice infected with a Penicillin G resistant strain of Staphylococcus Aureus; assay type: in vivo
Protocol: ^3 In mice infected with a Penicillin Gresistant strain of
Staphylococcus Aureus, the orally administered combination of 32, at 125
mg/kg of body weight, and Penicillin G, at 80 mg/kg of body weight, […]

[7] = read-out: MIC: μg/mL Compound Alone

## C[C@H](O)[C@H]1C(=O)[C@@H]2C(C(=O)OC(c3ccccc3)c3ccccc3)=C([S+]([O-])c3ccccc3)C[C@@H]21 (relative stereo) [Compound 35, 3-Phenylsulfinyl-6-(1-hydroxyethyl)-7-oxobicyclo[3.2.0]hept-2-en-2-carboxylic Acid, Diphenylmethyl Ester]
[1]
  Effective Combination Concentrations: Units/mL Benzyl Penicillin: 25 Units/mL
  Effective Combination Concentrations: μg/mL Compound: 3.2 µg/mL
[2]; [7]
  MIC: 50 µg/mL (≈ 103 µM)
[3]
  MIC: 25 µg/mL (≈ 51.4 µM)
  active against B. cereus var. mycoides: active
[4]
  Effective Combination Concentrations: Units/mL Benzyl Penicillin: 10 Units/mL
  Effective Combination Concentrations: μg/mL Compound: 6.3 µg/mL

## CC(=O)NCCSC1=C(C(=O)OC(c2ccccc2)c2ccccc2)C2C(=O)[C@H]([C@H](C)O)[C@H]2C1 (relative stereo) [Compound 76, 3-(2-Acetamidoethylthio)-(1-hydroxyethyl)-7-oxobicyclo[3.2.0]hept-2-en-2-carboxylic Acid, Diphenylmethyl Ester]
[2]; [7]
  MIC: > 100 µg/mL
[4]
  Effective Combination Concentrations: Units/mL Benzyl Penicillin: 10 Units/mL
  Effective Combination Concentrations: μg/mL Compound: 50 µg/mL

## CC(=O)NCC[S+]([O-])C1=C(C(=O)OC(c2ccccc2)c2ccccc2)[C@H]2C(=O)[C@H]([C@H](C)O)[C@H]2C1 (relative stereo) [Compound 78, 3-(2-Acetamidoethylsulfinyl)-6-(1-hydroxyethyl)-7-oxobicyclo[3.2.0]hept-2-en-2-carboxylic Acid, Diphenylmethyl Ester]
[2]; [7]
  MIC: 50 µg/mL (≈ 101 µM)
[4]
  Effective Combination Concentrations: Units/mL Benzyl Penicillin: 20 Units/mL
  Effective Combination Concentrations: μg/mL Compound: 12.5 µg/mL

## O=C(O)C1=C([S+]([O-])c2ccc([N+](=O)[O-])cc2)CC2CC(=O)C12 (stereo not drawn) [32+]
[2]; [7]
  MIC: > 100 µg/mL
[4]
  Effective Combination Concentrations: Units/mL Benzyl Penicillin: 20 Units/mL
  Effective Combination Concentrations: μg/mL Compound: 12.5 µg/mL

## O=C(OC(c1ccccc1)c1ccccc1)C1=CCC2CC(=O)C12 (stereo not drawn) [Compound 13, 7-Oxobicyclo[3.2.0]hept-2-en-2-carboxylic Acid, Diphenylmethyl Ester]
[2]; [7]
  MIC: > 100 µg/mL
[4]
  Effective Combination Concentrations: Units/mL Benzyl Penicillin: 10 Units/mL
  Effective Combination Concentrations: μg/mL Compound: 12.5 µg/mL

## O=C(OC(c1ccccc1)c1ccccc1)C1=C([S+]([O-])c2ccccc2)CC2CC(=O)C12 (stereo not drawn) [Compound 16, 3-Phenylsulfinyl-7-oxobicyclo[3.2.0]hept-2-en-2-carboxylic Acid, Diphenylmethyl Ester]
[2]; read-out: Microdilution MIC
  MIC: 50 µg/mL (≈ 113 µM)

## O=C(OC(c1ccccc1)c1ccccc1)C1=C(S(=O)(=O)c2ccccc2)CC2CC(=O)C12 (stereo not drawn) [Compound 20, 3-Phenylsulfonyl-7-oxobicyclo[3.2.0]hept-2-en-2-carboxylic Acid, Diphenylmethyl Ester]
[2]; read-out: Microdilution MIC
  MIC: 100 µg/mL (≈ 218 µM)

## CC(=O)NCCSC1=C(C(=O)OC(c2ccccc2)c2ccccc2)C2C(=O)CC2C1 (stereo not drawn) [Compound 24, 3-(2'-Acetamidoethylthio)-7-oxobicyclo-[3.2.0]hept-2-en-2-carboxylic Acid, Diphenylmethyl Ester]
[5]
  inhibition at 75 µg/mL: 30 to 40%
[2]; [7]
  MIC: > 100 µg/mL
[4]
  Effective Combination Concentrations: Units/mL Benzyl Penicillin: 20 Units/mL
  Effective Combination Concentrations: μg/mL Compound: 12.5 µg/mL

## CC(=O)NCCSC1=C(C(=O)O)C2C(=O)CC2C1 (stereo not drawn) [Compound 25, 3-(2'-Acetamidoethylthio)-7-oxobicyclo[3.2.0]hept-2-en-2-carboxylic Acid]
[5]
  inhibition at 75 µg/mL: 10 to 15%

## CC(=O)NCC[S+]([O-])C1=C(C(=O)OC(c2ccccc2)c2ccccc2)C2C(=O)CC2C1 (stereo not drawn) [Compound 26]
[2]; read-out: Microdilution MIC
  MIC: 100 µg/mL (≈ 221 µM)

## CC(=O)NCCSC1=C(C(=O)OCc2cccc3ccccc23)C2C(=O)CC2C1 (stereo not drawn) [Compound 28, 3-(2'-Acetamidoethylthio)-7-oxobicyclo[3.2.0]hept-2-en-2-carboxylic Acid, 1-Naphthylmethyl Ester]
[2]; [7]
  MIC: > 100 µg/mL
[4]
  Effective Combination Concentrations: Units/mL Benzyl Penicillin: 20 Units/mL
  Effective Combination Concentrations: μg/mL Compound: 25 µg/mL

## CC(=O)NCC[S+]([O-])C1=C(C(=O)OCc2cccc3ccccc23)C2C(=O)CC2C1 (stereo not drawn) [Compound 29, 3-(2'-Acetamidoethylsulfinyl)-7-oxobicyclo[3.2.0]hept-2-en-2-carboxylic Acid, 1-Naphthylmethyl Ester]
[2]; [7]
  MIC: 100 µg/mL (≈ 235 µM)
[4]
  Effective Combination Concentrations: Units/mL Benzyl Penicillin: 20 Units/mL
  Effective Combination Concentrations: μg/mL Compound: 25 µg/mL

## O=C(OC(c1ccccc1)c1ccccc1)C1=C([S+]([O-])c2ccc([N+](=O)[O-])cc2)CC2CC(=O)C12 (stereo not drawn) [Compound 32, 3-(p-Nitrophenylsulfinyl)-7-oxobicyclo[3.2.0]hept-2-en-2-carboxylic Acid, Diphenylmethyl Ester]
[1]
  Effective Combination Concentrations: Units/mL Benzyl Penicillin: 25 Units/mL
  Effective Combination Concentrations: μg/mL Compound: 1.5 µg/mL
[2]; [7]
  MIC: 25 µg/mL (≈ 51.3 µM)
[3]
  MIC: 6.3 µg/mL (≈ 12.9 µM)
  active against B. cereus var. mycoides: active
[6]; compound by itself at 500 mg/kg
  survival rate: 16.7%
[6]; oral combination of 32 at 125 mg/kg and Penicillin G at 80 mg/kg
  survival: 83.3%
[4]
  Effective Combination Concentrations: Units/mL Benzyl Penicillin: 5.0 Units/mL
  Effective Combination Concentrations: μg/mL Compound: 6.3 µg/mL
[4]; listed as 32*
  Effective Combination Concentrations: Units/mL Benzyl Penicillin: 10 Units/mL

## O=C(OC(c1ccccc1)c1ccccc1)C1=C([S+]([O-])CCNC(=O)C(c2ccccc2)c2ccccc2)CC2CC(=O)C12 (stereo not drawn) [Compound 64]
[2]; [7]
  MIC: > 100 µg/mL
[4]
  Effective Combination Concentrations: Units/mL Benzyl Penicillin: 20 Units/mL
  Effective Combination Concentrations: μg/mL Compound: 3.2 µg/mL

## O=C(OC(c1ccccc1)c1ccccc1)C1=C(S(=O)(=O)c2ccc([N+](=O)[O-])cc2)CC2CC(=O)C12 (stereo not drawn) [Compound 73, 3-(p-Nitrophenylsulfonyl)-7-oxobicyclo[3.2.0]hept-2-en-2-carboxylic Acid, Diphenylmethyl Ester]
[2]; [7]
  MIC: 50 µg/mL (≈ 99.3 µM)
[4]
  Effective Combination Concentrations: Units/mL Benzyl Penicillin: 1.25 Units/mL
  Effective Combination Concentrations: μg/mL Compound: 25 µg/mL

## O=C(OC(c1ccccc1)c1ccccc1)C1=CCC2C1C(=O)C2(Cl)C(O)c1ccccc1 (stereo not drawn) [Compound 75, 6-Chloro-6-(α'-hydroxybenzyl)-7-oxobicyclo[3.2.0]hept-2-en-2-carboxylic Acid, Diphenylmethyl Ester]
[2]; [7]
  MIC: > 100 µg/mL
[4]
  Effective Combination Concentrations: Units/mL Benzyl Penicillin: 10 Units/mL
  Effective Combination Concentrations: μg/mL Compound: 6.3 µg/mL

## COC1(OC)C2C(C(=O)OC(c3ccccc3)c3ccccc3)=C(S(=O)(=O)c3ccccc3)CC2C1C(C)O (stereo not drawn) [Compound 79, 3-Phenylsulfonyl-6-(1-hydroxyethyl)-7,7-dimethoxybicyclo[3.2.0]hept-2-en-2-carboxylic Acid, Diphenylmethyl Ester]
[2]; [7]
  MIC: > 100 µg/mL
[4]
  Effective Combination Concentrations: Units/mL Benzyl Penicillin: 20 Units/mL
  Effective Combination Concentrations: μg/mL Compound: 12.5 µg/mL

## CC1(C)S[C@@H]2[C@H](NC(=O)Cc3ccccc3)C(=O)N2[C@H]1C(=O)O [benzyl penicillin, reference compound]
[2]; Table 4 footnote, alone
  Minimum Inhibitory Concentration of Benzyl Penicillin: 100 units/mL
[2]; test isolate, benzyl penicillin alone
  minimum inhibitory concentration (MIC) of benzyl penicillin: > 100 units per mL
[3]; Table 6 footnote, alone
  Benzyl penicillin MIC: 100 units/mL
[6]; Penicillin G by itself, 80 mg/kg
  survival: 33.3%

## Cc1onc(-c2ccccc2Cl)c1C(=O)N[C@@H]1C(=O)N2[C@@H]1SC(C)(C)[C@@H]2C(=O)O [cloxacillin, reference compound]
[5]
  inhibition at 75 µg/mL: 10 to 15%

Source: US4505905A, “Cyclobutanone antibacterials” (E. I. Du Pont de Nemours and Company, priority 1982, dated 1985)
